Test results reported in patent publication US20050049309A1, “Regulation of HIF protein levels via deubiquitination pathway” (priority 2003, published 2005).
Where a SMILES comes first, the peptide text is derived from it. [ ]: non-standard residue; d: D form. The star is where a group is joined. Nva = CCC[C@H](N)C(=O)O; Cbz = O=C(OCc1ccccc1)*

Key:
HIF-1α = assay type: cell-based, human
hypoxic cells = settings: cited from earlier work
[1] = cited from earlier work
[2] = system: deubiquitinase enzyme activity (HT-29 cell lysate) on polyubiquitinated HIF-1α; assay type: biochemical, human
HIF-1α protein = settings: recent studies (literature); cited from earlier work

SMILES: C[C@@H]1C[C@@H]([C@H](O)CC2CC(=O)NC(=O)C2)C(=O)[C@@H](C)C1 [Cycloheximide, cycloheximide]
- Ubiquitination of HIF-1α with proteasome inhibited (HIF-1α): no affect

SMILES: O=C(O)CCCc1ccc(N(CCCl)OCCCl)cc1 [CHL-HD]
- Toxicity with reducing enzymes under hypoxia (hypoxic cells): greater toxicity
- In vivo toxicity [1]: minimal in vivo toxicity

SMILES: CCC[C@@H](C=O)NC(=O)[C@H](CC(C)C)NC(=O)[C@H](CC(C)C)NC(=O)OCc1ccccc1 [LLnV, N-carbobenzoxy-Leu-Leu-norvalinal] (Cbz-Leu-Leu-[Nva]-aldehyde)
- Deubiquitination of HIF-1α in vitro [2]: did not affect

SMILES: C=CCNC1=C2C[C@@H](C)C[C@H](OC)[C@H](O)[C@@H](C)/C=C(\C)[C@H](OC(N)=O)[C@@H](OC)/C=C\C=C(/C)C(=O)NC(=CC1=O)C2=O [17-AAG, 17-allylamino-17-desmethoxygeldanamycin]
- HIF-1α protein in cell-lines lacking pVHL (HIF-1α protein): promote the loss of HIF-1α protein
